Data published in PubChem BioAssay AID222 (DTP/NCI, 2004).
“And” between values parts separate entries of the source, which are not always exact repeats. Equal values may be shown once. Inconclusive results and toxic doses are left out. The calls were made as follows: active = survival T/C of 150% or more; inactive = T/C below 125% in these data. Starred links: 1 amine or outer side, 2 acyl side, 3 side chain; linkers in the order of their positions; H or OH if unused. Positions of bridges follow the written chain, without caps; N, C: chain ends. Non-standard residues stand in square brackets, D forms with d. Residues, ends and D or L forms follow the SMILES beside them. Chains are numbered I, II in the order given. Actinocin(9to1) = Cc1c2oc3c(C)ccc(C(=O)[*:1])c3nc-2c(C(=O)[*:2])c(N)c1=O; aThr = C[C@H](O)[C@H](N)C(=O)O; NMeV = CN[C@H](C(=O)O)C(C)C; Sar = CNCC(=O)O

Test system: C57BL/6 mice, intracerebral ependymoblastoma, median survival T/C
Test: NCI In Vivo Anticancer Drug Screen. Data for tumor model Ependymoblastoma (intracerebral) in C57BL/6 mice
Settings: endpoint: median survival time, higher = longer survival
Description: The antitumor activity of compounds was measured in mice bearing transplantable tumors. Survival or tumor size were measured and the results are expressed as the measurement made in the treated group (T) divided by the measurement made in the vehicle treated control group (C). The tumor model used in this assay is Ependymoblastoma (intracerebral) in C57BL/6 mice

[1] = dose: 64.0 mg/kg/injection, schedule: Q01DX005 (ip), vehicle: saline
[2] = dose: 128.0 mg/kg/injection, schedule: Q01DX005 (ip), vehicle: saline
[3] = dose: 256.0 mg/kg/injection, schedule: Q01DX005 (ip), vehicle: saline
[4] = dose: 512.0 mg/kg/injection, schedule: Q01DX005 (ip), vehicle: saline
[5] = dose: 8.0 mg/kg/injection, schedule: Q01DX005 (ip), vehicle: saline
[6] = dose: 2.0 mg/kg/injection, schedule: Q01DX005 (ip), vehicle: Klucel (hydroxypropylcellulose) (HPC)
[7] = dose: 4.0 mg/kg/injection, schedule: Q01DX005 (ip), vehicle: Klucel (hydroxypropylcellulose) (HPC)
[8] = dose: 8.0 mg/kg/injection, schedule: Q01DX005 (ip), vehicle: Klucel (hydroxypropylcellulose) (HPC)
[9] = dose: 16.0 mg/kg/injection, schedule: Q01DX005 (ip), vehicle: Klucel (hydroxypropylcellulose) (HPC)
[10] = dose: 32.0 mg/kg/injection, schedule: Q01DX005 (ip), vehicle: Klucel (hydroxypropylcellulose) (HPC)
[11] = dose: 64.0 mg/kg/injection, schedule: Q01DX005 (ip), vehicle: Klucel (hydroxypropylcellulose) (HPC)

Measured: T/C

O=c1ccn(C2OC(CO)C(O)C2O)c(=O)[nH]1 (stereo not drawn)
inactive: [1] 93 % of control | [2] 89 % of control and 100 % of control | [3] 102 % of control and 109 % of control | [4] 96 % of control and 108 % of control

CCC(=O)O[C@H]1CC[C@H]2[C@@H]3CCC4=CC(=O)CC[C@]4(C)[C@H]3CC[C@]12C
inactive: [5] 91 % of control and 98 % of control | dose: 16.0 mg/kg/injection, schedule: Q01DX005 (ip), vehicle: saline 90 % of control and 102 % of control | dose: 32.0 mg/kg/injection, schedule: Q01DX005 (ip), vehicle: saline 93 % of control and 100 % of control | [1] 98 % of control and 99 % of control | [2] 90 % of control | [3] 89 % of control and 94 % of control | [4] 91 % of control and 99 % of control

O=c1cnn(C2OC(CO)C(O)C2O)c(=O)[nH]1 (stereo not drawn)
inactive: dose: 250.0 mg/kg/injection, schedule: Q01DX005 (ip), vehicle: saline 102 % of control | dose: 500.0 mg/kg/injection, schedule: Q01DX005 (ip), vehicle: saline 109 % of control and 111 % of control | dose: 1000.0 mg/kg/injection, schedule: Q01DX005 (ip), vehicle: saline 105 % of control and 109 % of control | dose: 2000.0 mg/kg/injection, schedule: Q01DX005 (ip), vehicle: saline 115 % of control

CNc1nc(N(C)C)nc(N(C)C)n1
inactive: dose: 3.12 mg/kg/injection, schedule: Q01DX005 (ip), vehicle: saline 103 % of control | dose: 6.25 mg/kg/injection, schedule: Q01DX005 (ip), vehicle: saline 96 % of control | dose: 12.5 mg/kg/injection, schedule: Q01DX005 (ip), vehicle: saline 97 % of control | dose: 25.0 mg/kg/injection, schedule: Q01DX005 (ip), vehicle: saline 108 % of control | dose: 50.0 mg/kg/injection, schedule: Q01DX005 (ip), vehicle: saline 100 % of control | dose: 100.0 mg/kg/injection, schedule: Q01DX005 (ip), vehicle: saline 113 % of control

CCN(CC)c1ccc2cc3ccc(=[N+](CC)CC)cc-3oc2c1
inactive: dose: 4.0 mg/kg/injection, schedule: Q01DX005 (ip), vehicle: saline 100 % of control | [5] 107 % of control

O=C(O)CCCc1ccc(N(CCCl)CCCl)cc1
inactive: dose: 0.12 mg/kg/injection, schedule: Q01DX005 (ip), vehicle: Klucel (hydroxypropylcellulose) (HPC) 115 % of control | dose: 0.25 mg/kg/injection, schedule: Q01DX005 (ip), vehicle: Klucel (hydroxypropylcellulose) (HPC) 110 % of control | dose: 1.0 mg/kg/injection, schedule: Q01DX005 (ip), vehicle: Klucel (hydroxypropylcellulose) (HPC) 100 % of control | dose: 2.0 mg/kg/injection, schedule: Q01DX001 (ip), vehicle: Klucel (hydroxypropylcellulose) (HPC) 100 % of control | [6] 100 % of control and 111 % of control and 120 % of control | dose: 4.0 mg/kg/injection, schedule: Q01DX001 (ip), vehicle: Klucel (hydroxypropylcellulose) (HPC) 106 % of control | [7] 107 % of control and 109 % of control and 122 % of control | dose: 8.0 mg/kg/injection, schedule: Q01DX001 (ip), vehicle: Klucel (hydroxypropylcellulose) (HPC) 105 % of control | [8] 109 % of control and 110 % of control and 122 % of control | [9] 96 % of control and 122 % of control

CC(C)=CCC1=C(O)c2ccccc2C(=O)C1=O
inactive: [10] 100 % of control | [11] 94 % of control | dose: 128.0 mg/kg/injection, schedule: Q01DX005 (ip), vehicle: Klucel (hydroxypropylcellulose) (HPC) 97 % of control

CCN(CC)CCOc1ccc(/C(=C(\Cl)c2ccccc2)c2ccccc2)cc1
inactive: [8] 97 % of control and 99 % of control | [9] 97 % of control and 108 % of control | [10] 95 % of control and 112 % of control | dose: 32.0 mg/kg/injection, schedule: Q01DX005 (oral), vehicle: Klucel (hydroxypropylcellulose) (HPC) 101 % of control | [11] 88 % of control and 95 % of control | dose: 64.0 mg/kg/injection, schedule: Q01DX005 (oral), vehicle: Klucel (hydroxypropylcellulose) (HPC) 104 % of control | dose: 128.0 mg/kg/injection, schedule: Q01DX005 (oral), vehicle: Klucel (hydroxypropylcellulose) (HPC) 96 % of control

CCC1CC2CC(c3cc4c(cc3OC)N(C)C3C(O)(C(=O)OC)C(OC(C)=O)C5(CC)C=CCN6CCC43C65)c3[nH]c4ccccc4c3CCN(C1)C2 (stereo not drawn)
inactive: dose: 0.05 mg/kg/injection, schedule: Q01DX005 (ip), vehicle: saline 108 % of control | dose: 0.1 mg/kg/injection, schedule: Q01DX005 (ip), vehicle: saline 112 % of control | dose: 0.2 mg/kg/injection, schedule: Q01DX005 (ip), vehicle: saline 97 % of control | dose: 0.4 mg/kg/injection, schedule: Q01DX005 (ip), vehicle: saline 119 % of control | dose: 0.8 mg/kg/injection, schedule: Q01DX005 (ip), vehicle: saline 107 % of control | dose: 3.2 mg/kg/injection, schedule: Q01DX005 (ip), vehicle: saline 96 % of control | dose: 6.4 mg/kg/injection, schedule: Q01DX005 (ip), vehicle: saline 105 % of control | dose: 12.8 mg/kg/injection, schedule: Q01DX005 (ip), vehicle: saline 102 % of control

CCCCCCCCCCCCCC(=O)OC12CC(C)C3(O)C(C=C(CO)C(O)C4(O)C(=O)C(C)=CC43)C1C2(C)C (stereo not drawn)
inactive: dose: 0.13 mg/kg/injection, schedule: Q01DX005 (ip), vehicle: acetone 100 % of control | dose: 0.25 mg/kg/injection, schedule: Q01DX005 (ip), vehicle: acetone 97 % of control | dose: 0.5 mg/kg/injection, schedule: Q01DX005 (ip), vehicle: acetone 86 % of control

Cc1c2oc3c(C)ccc(C(=O)N[C@@H]4C(=O)N[C@H](C(C)C)C(=O)N5CCC[C@H]5C(=O)N(C)CC(=O)N(C)[C@@H](C(C)C)C(=O)O[C@H]4C)c3nc-2c(C(=O)N[C@@H]2C(=O)N[C@H](C(C)C)C(=O)N3CCC[C@H]3C(=O)N(C)CC(=O)N(C)[C@@H](C(C)C)C(=O)O[C@H]2C)c(N)c1=O (I: [aThr][dV]P[Sar][NMeV] / II: [aThr][dV]P[Sar][NMeV]; ester I:1-I:C, II:1-II:C; linker I:N-II:N via Actinocin(9to1))
inactive: dose: 12.5 micrograms/kg/injection, schedule: Q01DX005 (ip), vehicle: saline 116 % of control | dose: 25.0 micrograms/kg/injection, schedule: Q01DX005 (ip), vehicle: saline 97 % of control | dose: 50.0 micrograms/kg/injection, schedule: Q01DX005 (ip), vehicle: saline 101 % of control

CC(=O)[C@]1(O)Cc2c(O)c3c(c(O)c2[C@@H](OC2CC(N)C(O)C(C)O2)C1)C(=O)c1c(O)cccc1C3=O (stereo partly drawn)
inactive: dose: 7.8 micrograms/kg/injection, schedule: Q01DX005 (ip), vehicle: suspension in saline 102 % of control | dose: 15.6 micrograms/kg/injection, schedule: Q01DX005 (ip), vehicle: suspension in saline 104 % of control | dose: 31.0 micrograms/kg/injection, schedule: Q01DX005 (ip), vehicle: suspension in saline 101 % of control | dose: 62.5 micrograms/kg/injection, schedule: Q01DX005 (ip), vehicle: suspension in saline 99 % of control | dose: 125.0 micrograms/kg/injection, schedule: Q01DX005 (ip), vehicle: suspension in saline 114 % of control

COC1C(O)C(C)OC(OC2C(Oc3cccc4c(O)c5c(=O)oc6ccc(C)c7c(=O)oc(c34)c5c67)OC(C)C(O)C2O)C1O (stereo not drawn)
inactive: [6] 105 % of control and 122 % of control and 124 % of control | [7] 95 % of control and 106 % of control | [8] 90 % of control and 111 % of control and 122 % of control | [9] 99 % of control and 113 % of control and 124 % of control | [10] 97 % of control and 103 % of control | [11] 99 % of control and 105 % of control and 107 % of control
